From paper PMC8234231, “In Vitro Inhibition of Renal OCT2 and MATE1 Secretion by Antiemetic Drugs” (International Journal of Molecular Sciences, 2021)
“Also recorded” adds a separate entry of the source. Read-outs that look alike come from different tables or passages of the source.

Columns and labels:
human OCT2 and MATE1 [1] = test: Inhibition of basolateral-to-apical transcellular transport of ASP+ in OCT2/MATE1 double-transfected MDCK cells (Transwell); conditions: for effect on B-to-A transport of ASP+: inhibitor 0.5–20 μM, 40–120 min, ASP+ 25 μM; for effect on transcellular transport of ASP+: inhibitor 10 and 20 μM
Protocol: (§1) Control and OCT2/MATE1-expressing MDCK cells were evaluated for protein expression of OCT2 and MATE1 using SDS-PAGE and western blotting with specific primary antibodies (OCT2, sc292622 1:500 and MATE1, sc133390 1:250, Santa Cruz Biotechnology, Santa Cruz, CA, USA), followed by an antirabbit HRP-conjugated secondary antibody (1:1000, Sigma Aldrich, St. Louis, MO, USA) and Super Signal Western Dura Extended Duration Substrate (Pierce Biotechnology, Rockford, IL, USA). Detection was performed with a FluorChem imager (ProteinSimple, Santa Clara, CA, USA). Both MDCK cell lines were seeded on 0.4 μm transwell inserts (VWR, Radnor, PA, USA) at a density of 2 × 10^5 cells/cm^2. Transport experiments were performed 3 to 5 days after seeding. The integrity of MDCK monolayers was verified by measuring transepithelial electrical resistance (TEER) >150 Ω*cm^2 using an epithelial voltohmmeter, EVOM^2 (World Precision Instruments, Sarasota, FL). Proper formation of tight junctions was also verified by measurement of passive permeability of lucifer yellow in the basolateral-to-apical (B-to-A) direction. Lucifer yellow (20 μM) was applied to the basolateral chamber for 1 h, and media were collected from the apical chamber.
(§2) After washing the cells once with Hank’s Buffered Saline Solution (HBSS) pH 7.4, transport studies were initiated after aspirating the wash buffer from both the apical and basal chambers. […] Cells were lysed with 1% Triton X-100. […] Intracellular fluorescence was normalized to total protein concentration of cell lysates from each transwell using the BCA assay. Experiments were performed in three individual Transwell inserts.

[2] = no reference given, cited from earlier work; for metabolized by cytochrome P450 enzymes in the liver: range for the named drugs together
human OCT2 = molecular target: T1, human OCT2 (Homo sapiens, UniProt O15244); test: Inhibition of ASP+ uptake in HEK293 cells overexpressing OCT2; type: cell-based; conditions: for IC50: HEK293-OCT2, ASP+ 10 μM, 1 min, 37 °C, Avg ± SE (n = 3)
T1 construct: expressed in transfected cells; gift of Dr. Kathy Giacomini, UCSF
T1 sequence (O15244 1-555): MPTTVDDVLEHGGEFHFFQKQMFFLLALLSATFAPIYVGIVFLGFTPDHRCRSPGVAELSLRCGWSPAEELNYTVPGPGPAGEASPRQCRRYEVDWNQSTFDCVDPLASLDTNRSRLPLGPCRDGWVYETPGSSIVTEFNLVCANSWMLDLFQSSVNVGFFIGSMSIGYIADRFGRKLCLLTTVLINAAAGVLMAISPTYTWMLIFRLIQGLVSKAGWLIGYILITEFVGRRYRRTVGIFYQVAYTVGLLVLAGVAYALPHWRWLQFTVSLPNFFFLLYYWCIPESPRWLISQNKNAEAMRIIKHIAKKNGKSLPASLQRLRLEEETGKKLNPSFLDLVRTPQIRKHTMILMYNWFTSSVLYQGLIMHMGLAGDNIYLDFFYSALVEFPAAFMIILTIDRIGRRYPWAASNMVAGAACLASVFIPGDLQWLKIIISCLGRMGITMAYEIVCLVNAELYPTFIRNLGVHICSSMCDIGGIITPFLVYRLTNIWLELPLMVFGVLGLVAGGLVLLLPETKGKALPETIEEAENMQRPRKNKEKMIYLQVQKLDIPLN
Protocol: (§3) After washing once with prewarmed Hank’s Buffered Saline Solution (HBSS), cells were preincubated for 30 min at 37 °C with various 5-HT3 antagonists for OCT2 cells or in a 30 mM NH4Cl solution in HBSS at pH 6.5 for MATE1 cells for intracellular acidification. Uptake into OCT2 cells was initiated through exposure to 10 μM of fluorescent substrate ASP^+ directly in the incubation media. Uptake into MATE1 cells was initiated by application of HBSS at pH 7.4 containing 5-HT3 antagonists and 10 μM of fluorescent substrate ASP^+. […] Media was removed and washed four times with ice-cold HBSS. Cells were lysed with 1% Triton X-100. […] Intracellular fluorescence was normalized to total protein concentration of cell lysates from each well using the bicinchoninic acid (BCA) assay (Pierce Biotechnology, Rockford, IL, USA). Experiments were repeated three separate times, with three to four replicates in each experiment.
(§4) GraphPad Prism v6 (GraphPad Software, La Jolla, CA, USA) was used for statistical analysis.

[3] = tested on: empty vector (EV) HEK293 cells; test: ASP+ uptake in empty vector (EV) HEK293 cells in presence of inhibitors; type: cell-based, human; conditions: ASP+ 10 μM
Text: Media was removed and washed four times with ice-cold HBSS. Cells were lysed with 1% Triton X-100. […] Experiments were repeated three separate times, with three to four replicates in each experiment.

MATE1 = molecular target: T2, MATE1 (Homo sapiens, UniProt Q96FL8); test: Inhibition of ASP+ uptake in HEK293 cells overexpressing MATE1; type: cell-based; conditions: for IC50: HEK293-MATE1, ASP+ 10 μM, 1 min, 37 °C, Avg ± SE (n = 3)
T2 construct: expressed in transfected cells; gift of Dr. Kathy Giacomini, UCSF
T2 sequence (Q96FL8 1-570): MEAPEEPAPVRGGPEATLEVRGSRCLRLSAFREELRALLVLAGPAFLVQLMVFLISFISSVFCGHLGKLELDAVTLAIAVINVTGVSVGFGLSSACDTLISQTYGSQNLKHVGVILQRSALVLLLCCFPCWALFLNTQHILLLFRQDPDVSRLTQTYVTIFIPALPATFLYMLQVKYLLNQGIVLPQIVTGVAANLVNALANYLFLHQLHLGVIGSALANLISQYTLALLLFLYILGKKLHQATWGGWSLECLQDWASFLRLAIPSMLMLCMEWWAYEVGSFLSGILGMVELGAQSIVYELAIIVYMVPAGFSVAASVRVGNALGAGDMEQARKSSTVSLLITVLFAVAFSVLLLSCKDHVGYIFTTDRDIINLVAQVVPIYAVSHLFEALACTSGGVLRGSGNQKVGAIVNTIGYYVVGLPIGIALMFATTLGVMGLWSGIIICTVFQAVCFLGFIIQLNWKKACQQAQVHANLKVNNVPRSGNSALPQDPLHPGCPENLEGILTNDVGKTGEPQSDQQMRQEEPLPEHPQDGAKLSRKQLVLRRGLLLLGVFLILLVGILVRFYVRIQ
Protocol: as §3, §4

human OCT2 and MATE1 [4] = test: Intracellular accumulation of ASP+ in OCT2/MATE1 double-transfected MDCK cells; type: cell-based; conditions: 120 min; for increase in intracellular ASP+ accumulation: inhibitor 20 μM (highest concentration); for effect on intracellular ASP+ accumulation: inhibitor 0.5–20 μM, ASP+ 25 μM
Protocol: Cells were incubated with 5-HT3 antagonists in the apical chamber in HBSS pH 6.0 and 5-HT3 antagonists with ASP^+ (25 μM) in the basolateral chamber in HBSS pH 7.4 and incubated at 37 °C for 120 min. To measure time-dependent transcellular transport, an aliquot of the incubation medium (100 μL) from the apical chamber (receiving chamber) was collected at 40, 60, 90, and 120 min and replaced with an equal volume of fresh buffer containing 5-HT3 antagonist or the positive control chemical at the original concentration. […] Cells were lysed with 1% Triton X-100. […] Experiments were performed in three individual Transwell inserts.

OCT2 and MATE1 = test: Inhibition of basolateral-to-apical transcellular transport of ASP+ in OCT2/MATE1 double-transfected MDCK cells (Transwell); conditions: human
Protocol: as §1, §2

[5] = probe ASP+ (25 μM, basolateral chamber)

IC50 (human OCT2) | IC50 (MATE1) | Structure (SMILES) | effect on B-to-A transport of ASP+ (human OCT2 and MATE1 [1]) | half-life [2] | metabolized by cytochrome P450 enzymes in the liver [2] | effect on ASP+ uptake in EV cells [3] | effect on transcellular transport of ASP+ (human OCT2 and MATE1 [1]) | other results
3.8 ± 1.6 µM | 5 ± 1.1 µM | CN1C2CCCC1CC(NC(=O)c1nn(C)c3ccccc13)C2 (stereo not drawn) [Granisetron] | did not alter the B-to-A transport of ASP^+ at any concentration tested; also recorded: did not exhibit any significant inhibition | 8 to 9 h | 48–95% | caused a small decrease in ASP^+ accumulation | – | increase in intracellular ASP+ accumulation (human OCT2 and MATE1 [4]): 1.3 fold
24.5 ± 4 µM | – | CN/C(=N/CCSCc1nc[nH]c1C)NC#N [Cimetidine] | – | – | – | had no influence on ASP^+ uptake | – | inhibition at 120 min, 5 μM (OCT2 and MATE1; [5]): 18%; inhibition at 120 min, 50 μM (OCT2 and MATE1; [5]): 40%; increase in intracellular accumulation of ASP+ (human OCT2 and MATE1 [4]; cimetidine concentration not stated in the sentence (5 and 50 μM tested)): 1.8 fold
31.3 ± 6.6 µM | 1.6 ± 0.9 µM | CN1[C@@H]2CC[C@H]1C[C@@H](OC(=O)c1c[nH]c3ccccc13)C2 [Tropisetron] | concentration-dependent inhibition of ASP^+ secretion, which was significant at 10 and 20 μM for all time-points | < 6 h | 48–95% | stimulated additional ASP^+ uptake | similarly reduced the transcellular transport of ASP^+ | increase in intracellular ASP+ accumulation (human OCT2 and MATE1 [4]): 1.5 fold
– | – | C[C@@H](O[C@H]1OCCN(Cc2n[nH]c(=O)[nH]2)[C@H]1c1ccc(F)cc1)c1cc(C(F)(F)F)cc(C(F)(F)F)c1 [aprepitant] | – | – | – | – | – | effect on ASP+ uptake in OCT2-expressing HEK293 cells (human OCT2; ASP+ 10 μM): had no impact on ASP^+ uptake; effect on ASP+ uptake in MATE1-expressing HEK293 cells (MATE1; ASP+ 10 μM): had no impact on ASP^+ uptake
2.2 ± 0.3 µM | 1.6 ± 0.6 µM | O=C1c2cccc3c2[C@H](CCC3)CN1[C@@H]1CN2CCC1CC2 [Palonosetron] | concentration-dependent inhibition of ASP^+ secretion, which was significant at 10 and 20 μM for all time-points | 40 h | 48–95% | stimulated additional ASP^+ uptake | similarly reduced the transcellular transport of ASP^+ | effect on intracellular ASP+ accumulation (human OCT2 and MATE1 [4]): No significant changes in ASP^+ accumulation
– | – | CCN(CC)CCNC(=O)c1cc(Cl)c(N)cc1OC [metoclopramide] | – | – | – | – | – | effect on ASP+ uptake in OCT2-expressing HEK293 cells (human OCT2): inhibited OCT2 activity across a range of concentrations; inhibition of MATE1 activity (MATE1): None of these drugs inhibited MATE1 activity
– | – | CCc1nc(N)nc(N)c1-c1ccc(Cl)cc1 [pyrimethamine] | – | – | – | – | – | inhibition at 120 min, 1 μM (OCT2 and MATE1): 36%; increase in intracellular accumulation of ASP+ (human OCT2 and MATE1 [4]; inhibitor 1 μM): 1.3 fold
– | – | CN1CCN(CCCN2c3ccccc3Sc3ccc(Cl)cc32)CC1 [prochlorperazine] | – | – | – | – | – | effect on ASP+ uptake in OCT2-expressing HEK293 cells (human OCT2; ASP+ 10 μM): inhibited OCT2 activity across a range of concentrations; inhibition of MATE1 activity (MATE1; inhibitor 10 μM, HEK293-MATE1 (data not shown)): None of these drugs inhibited MATE1 activity
85.4 ± 3.4 µM | 27.4 ± 2.8 µM | O=C(O[C@@H]1C[C@@H]2C[C@H]3C[C@H](C1)N2CC3=O)c1c[nH]c2ccccc12 [Dolasetron] | at 10 and 20 μM inhibited ASP^+ transport at 120 min only | 8 to 9 h | – | – | similarly reduced the transcellular transport of ASP^+ | effect on intracellular ASP+ accumulation (human OCT2 and MATE1 [4]): No significant changes in ASP^+ accumulation
